From PubChem BioAssay (NCI)
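In this assay, cells in 96-well plates receive the compound at five concentrations for 48 hours. Endpoints are linearly interpolated between the surrounding concentrations. TGI: concentration producing complete growth inhibition.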

What was measured:
Assay in all cases: growth of human tumour cells (NCI), 48 h
MDA-MB-435 = system: MDA-MB-435
SF-539 CNS = system: SF-539 CNS
HCT-15 colon = system: HCT-15 colon
HCT-116 colon = system: HCT-116 colon
MOLT-4 leukemia = system: MOLT-4 leukemia
NCI-H460 lung = system: NCI-H460 lung
COLO 205 colon = system: COLO 205 colon
OVCAR-4 ovarian = system: OVCAR-4 ovarian
OVCAR-5 ovarian = system: OVCAR-5 ovarian
SF-295 CNS = system: SF-295 CNS
A549 NSCLC = system: A549 NSCLC
PC-3 prostate = system: PC-3 prostate
SW-620 colon = system: SW-620 colon
UO-31 renal = system: UO-31 renal
OVCAR-3 ovarian = system: OVCAR-3 ovarian
HCC-2998 colon = system: HCC-2998 colon
SNB-75 CNS = system: SNB-75 CNS
NCI-H226 lung = system: NCI-H226 lung
IGROV1 ovarian = system: IGROV1 ovarian
NCI-H23 lung = system: NCI-H23 lung
HL-60(TB) leukemia = system: HL-60(TB) leukemia
NCI-H522 lung = system: NCI-H522 lung
786-0 renal = system: 786-0 renal
DU-145 prostate = system: DU-145 prostate
HOP-62 NSCLC = system: HOP-62 NSCLC
UACC-257 melanoma = system: UACC-257 melanoma
HS 578T breast = system: HS 578T breast
SK-MEL-2 melanoma = system: SK-MEL-2 melanoma
CCRF-CEM leukemia = system: CCRF-CEM leukemia
MDA-MB-231 breast = system: MDA-MB-231 breast
EKVX NSCLC = system: EKVX NSCLC
KM12 colon = system: KM12 colon
MDA-N = system: MDA-N
LOX IMVI melanoma = system: LOX IMVI melanoma
UACC-62 melanoma = system: UACC-62 melanoma
SK-OV-3 ovarian = system: SK-OV-3 ovarian
M14 melanoma = system: M14 melanoma
HT29 colon = system: HT29 colon
SK-MEL-5 melanoma = system: SK-MEL-5 melanoma
SNB-19 CNS = system: SNB-19 CNS
BT-549 breast = system: BT-549 breast
ACHN renal = system: ACHN renal
HOP-92 NSCLC = system: HOP-92 NSCLC
MCF7 breast = system: MCF7 breast
SF-268 CNS = system: SF-268 CNS
NCI/ADR-RES ovarian = system: NCI/ADR-RES ovarian
CAKI-1 renal = system: CAKI-1 renal
TK-10 renal = system: TK-10 renal
U251 CNS = system: U251 CNS
OVCAR-8 ovarian = system: OVCAR-8 ovarian
RXF 393 renal = system: RXF 393 renal
SK-MEL-28 melanoma = system: SK-MEL-28 melanoma
MALME-3M melanoma = system: MALME-3M melanoma
SN12C renal = system: SN12C renal
SR leukemia = system: SR leukemia
K-562 leukemia = system: K-562 leukemia
RPMI-8226 leukemia = system: RPMI-8226 leukemia
T-47D breast = system: T-47D breast
A498 renal = system: A498 renal

CC(=O)NC1=NC(=O)/C(=C/c2ccc(Cl)cc2Cl)N1C
TGI (MDA-MB-435): > 100 µM
TGI (SF-539 CNS): > 100 µM
TGI (HCT-15 colon): > 100 µM
TGI (HCT-116 colon): > 100 µM
TGI (MOLT-4 leukemia): 81.4 µM
TGI (NCI-H460 lung): > 100 µM
TGI (COLO 205 colon): > 100 µM
TGI (OVCAR-4 ovarian): > 100 µM
TGI (OVCAR-5 ovarian): > 100 µM
TGI (SF-295 CNS): > 100 µM
TGI (A549 NSCLC): > 100 µM
TGI (PC-3 prostate): > 100 µM
TGI (SW-620 colon): > 100 µM
TGI (UO-31 renal): > 100 µM
TGI (OVCAR-3 ovarian): > 100 µM
TGI (HCC-2998 colon): > 100 µM
TGI (SNB-75 CNS): > 100 µM
TGI (NCI-H226 lung): 82.5 µM
TGI (IGROV1 ovarian): > 100 µM
TGI (NCI-H23 lung): > 100 µM
TGI (HL-60(TB) leukemia): 7.37 µM
TGI (NCI-H522 lung): > 100 µM
TGI (786-0 renal): > 100 µM
TGI (DU-145 prostate): > 100 µM
TGI (HOP-62 NSCLC): > 100 µM
TGI (UACC-257 melanoma): > 100 µM
TGI (HS 578T breast): > 100 µM
TGI (SK-MEL-2 melanoma): > 100 µM
TGI (CCRF-CEM leukemia): 34.8 µM
TGI (MDA-MB-231 breast): > 100 µM
TGI (EKVX NSCLC): 50.7 µM
TGI (KM12 colon): > 100 µM
TGI (MDA-N): > 100 µM
TGI (LOX IMVI melanoma): > 100 µM
TGI (UACC-62 melanoma): 88.2 µM
TGI (SK-OV-3 ovarian): > 100 µM
TGI (M14 melanoma): > 100 µM
TGI (HT29 colon): > 100 µM
TGI (SK-MEL-5 melanoma): > 100 µM
TGI (SNB-19 CNS): > 100 µM
TGI (BT-549 breast): > 100 µM
TGI (ACHN renal): > 100 µM
TGI (HOP-92 NSCLC): > 100 µM
TGI (MCF7 breast): > 100 µM
TGI (SF-268 CNS): > 100 µM
TGI (NCI/ADR-RES ovarian): > 100 µM
TGI (CAKI-1 renal): > 100 µM
TGI (TK-10 renal): > 100 µM
TGI (U251 CNS): > 100 µM
TGI (OVCAR-8 ovarian): > 100 µM
TGI (RXF 393 renal): > 100 µM

Brc1ccc2c(c1)[C@H]1CCc3c([nH]c4ccccc34)[C@H]1N2
TGI (MDA-MB-435): 26.2 µM
TGI (SK-MEL-28 melanoma): 27 µM
TGI (MALME-3M melanoma): 22.8 µM
TGI (SF-539 CNS): 16.4 µM
TGI (HCT-116 colon): 21 µM
TGI (MOLT-4 leukemia): 16.8 µM
TGI (NCI-H460 lung): 24.8 µM
TGI (SN12C renal): 27.2 µM
TGI (COLO 205 colon): 23.6 µM
TGI (OVCAR-4 ovarian): 26.3 µM
TGI (OVCAR-5 ovarian): 27 µM
TGI (SF-295 CNS): 24.5 µM
TGI (A549 NSCLC): 47.4 µM
TGI (PC-3 prostate): 22.4 µM
TGI (SW-620 colon): 27.4 µM
TGI (UO-31 renal): 26.9 µM
TGI (OVCAR-3 ovarian): 25.3 µM
TGI (HCC-2998 colon): 25.5 µM
TGI (SNB-75 CNS): 35.7 µM
TGI (NCI-H226 lung): 28.4 µM
TGI (IGROV1 ovarian): 15.6 µM
TGI (NCI-H23 lung): 25 µM
TGI (DU-145 prostate): 25.5 µM
TGI (HOP-62 NSCLC): 25.6 µM
TGI (UACC-257 melanoma): 25.6 µM
TGI (HS 578T breast): 46.5 µM
TGI (SK-MEL-2 melanoma): 36.4 µM
TGI (CCRF-CEM leukemia): 21.6 µM
TGI (SR leukemia): 33.1 µM
TGI (MDA-MB-231 breast): 12.3 µM
TGI (EKVX NSCLC): 22.6 µM
TGI (KM12 colon): 18.6 µM
TGI (MDA-N): 28.7 µM
TGI (LOX IMVI melanoma): 19.1 µM
TGI (K-562 leukemia): 39.8 µM
TGI (UACC-62 melanoma): 24 µM
TGI (SK-OV-3 ovarian): 27.5 µM
TGI (M14 melanoma): 29.9 µM
TGI (RPMI-8226 leukemia): 23.2 µM
TGI (HT29 colon): 27.1 µM
TGI (SK-MEL-5 melanoma): 12.1 µM
TGI (SNB-19 CNS): 27 µM
TGI (BT-549 breast): 34.7 µM
TGI (ACHN renal): 25 µM
TGI (HOP-92 NSCLC): 26.3 µM
TGI (MCF7 breast): 18.6 µM
TGI (SF-268 CNS): 32.4 µM
TGI (NCI/ADR-RES ovarian): 29.6 µM
TGI (CAKI-1 renal): 21.8 µM
TGI (TK-10 renal): 23.3 µM
TGI (U251 CNS): 21.7 µM
TGI (OVCAR-8 ovarian): 27.4 µM
TGI (T-47D breast): 16.8 µM
TGI (RXF 393 renal): 33.4 µM

CCCCC(=O)Nc1ccc2cc(C(=O)OC)c(=O)[nH]c2n1
TGI (MDA-MB-435): > 100 µM
TGI (SK-MEL-28 melanoma): > 100 µM
TGI (MALME-3M melanoma): > 100 µM
TGI (SF-539 CNS): > 100 µM
TGI (HCT-15 colon): > 100 µM
TGI (HCT-116 colon): > 100 µM
TGI (MOLT-4 leukemia): > 100 µM
TGI (NCI-H460 lung): > 100 µM
TGI (SN12C renal): > 100 µM
TGI (COLO 205 colon): > 100 µM
TGI (OVCAR-4 ovarian): > 100 µM
TGI (OVCAR-5 ovarian): > 100 µM
TGI (SF-295 CNS): > 100 µM
TGI (A549 NSCLC): > 100 µM
TGI (A498 renal): > 100 µM
TGI (PC-3 prostate): > 100 µM
TGI (SW-620 colon): > 100 µM
TGI (UO-31 renal): > 100 µM
TGI (OVCAR-3 ovarian): > 100 µM
TGI (HCC-2998 colon): > 100 µM
TGI (SNB-75 CNS): > 100 µM
TGI (NCI-H226 lung): > 100 µM
TGI (IGROV1 ovarian): > 100 µM
TGI (NCI-H23 lung): > 100 µM
TGI (NCI-H522 lung): > 100 µM
TGI (786-0 renal): > 100 µM
TGI (HOP-62 NSCLC): > 100 µM
TGI (UACC-257 melanoma): > 100 µM
TGI (SK-MEL-2 melanoma): > 100 µM
TGI (CCRF-CEM leukemia): > 100 µM
TGI (SR leukemia): > 100 µM
TGI (MDA-MB-231 breast): > 100 µM
TGI (EKVX NSCLC): > 100 µM
TGI (KM12 colon): > 100 µM
TGI (MDA-N): > 100 µM
TGI (LOX IMVI melanoma): > 100 µM
TGI (K-562 leukemia): > 100 µM
TGI (SK-OV-3 ovarian): > 100 µM
TGI (M14 melanoma): > 100 µM
TGI (RPMI-8226 leukemia): > 100 µM
TGI (SK-MEL-5 melanoma): > 100 µM
TGI (SNB-19 CNS): > 100 µM
TGI (BT-549 breast): > 100 µM
TGI (ACHN renal): > 100 µM
TGI (HOP-92 NSCLC): > 100 µM
TGI (MCF7 breast): > 100 µM
TGI (SF-268 CNS): > 100 µM
TGI (NCI/ADR-RES ovarian): > 100 µM
TGI (CAKI-1 renal): > 100 µM
TGI (TK-10 renal): > 100 µM
TGI (U251 CNS): > 100 µM
TGI (OVCAR-8 ovarian): > 100 µM
TGI (T-47D breast): > 100 µM
TGI (RXF 393 renal): > 100 µM
